Entries after “also recorded” stand apart in the source; their conditions may differ.
Columns and labels:
Caspase-1 = Caspase-1 assay in human MDMs; assay type: cell-based; settings: 10 μM, 48 h
Protocol: For TET3 expression restoration experiments, cells seeded in 24-well plates were infected with Ad-GFP or Ad-TET3 at 4000 gc/cell. Following 16 h of infection, vehicle or Bobcat339 were added at a final concentration of 10 μM. Protein and RNA were isolated 48 hours later and analyzed.
These were carried out using the Apoptosis/Caspase-1 assay kit (MyBioSource, MBS258046). Briefly, after wash with PBS, cells were incubated with 1×FAM-FLCA working solution in 300 μL growth media at 37 °C for 1 hour, followed by wash with 1× Cellular Wash Buffer three times. Hoechst 33342 was applied to counter-stain the cells for 15 min. Cells were then covered with mounting media and coverslips and scoped using a Keyence BZ-X700 fluorescence microscope.

Plasma corticosterone = assay type: in vivo, mouse; settings: ABA mice
Protocol: For corticosterone, blood samples were obtained via retroorbital bleeding between 19:00 and 20:00. For alanine transaminase, aspartate transaminase and bilirubin, blood samples were collected by cardiac puncture of terminally anesthetized animals. All blood samples were collected in EDTA tubes (Microtainer with K2EDTA, BD, 365974). The tubes were centrifuged at 2,000×g at 4 °C for 20 min, and plasma was collected and stored at −80 °C until use. Plasma corticosterone levels were measured using Corticosterone ELISA kit (Enzo, ADI-900-097) according to the manufacturer's instructions. Kits used to measure alanine transaminase (EALT-100) and aspartate transaminase (EASTR-100) were purchased from Bioassay Systems. The bilirubin assay kit (MAK126) was purchased from Sigma Aldrich.

[1] = dosage and administration regimes used; cited from earlier work
[2] = test system: HT-22 mouse hippocampal neuronal cells; experiment: DNA 5hmC level in HT-22 hippocampal neuronal cells; assay type: cell-based; settings: 10 μM, 24 h
Excerpt: It was not unprecedented that compounds initially developed as protein function inhibitors were later serendipitously found to be protein degraders (Bekes, M. et al., 2022, Nature Reviews Drug Discovery, 21(3):181-200).

let-7a = let-7a miRNA in endometriosis, NASH liver and lung tumor tissues; assay type: in vivo, mouse; settings: lung cancer tissues
Protocol: For let-7a qPCR, 10 ng of total RNA was reverse transcribed to cDNA in a reaction volume of 10 μl using miRCURY LNA RT Kit (QIAGEN, 339340). Quantitative real-time PCR reactions were carried out using miRCURY LNA SYBR Green PCR Kit (QIAGEN, 339346) and a let-7a-specific primer (Has-Let-7a-5p miRCURY LNA miRNA PCR Assay, QIAGEN, 339306/YP00205727) in a Bio-Rad iCycler. Gene expression levels were normalized against U6 (U6 snRNA v2 miRURY LNA miRNA PCR Assay, QIAGEN, 339306/YPO2119464, QIAGEN).

Cas9+ mice = experiment: Post-fast refeeding study with leptin; assay type: in vivo, mouse; settings: leptin 5 mg/kg i.p.
Protocol: To assess leptin effects on suppression of hunger-induced appetite, female Cas9+ mice injected with AAV or AAV-sgTet3 bilaterally into the ARC were fasted overnight for 22 h. On the second day, mouse leptin (L3772-1MG, Sigma Aldrich) was administrated at 5 mg/kg intraperitoneally at 10:00 and pre-weighed food was placed in the cage and monitored for the following 24 h. For ChIP studies, Cas9+ mice injected with AAV or AAVsgTet3 bilaterally into the ARC were fasted overnight for 22 h. On the second day, saline or leptin (5 mg/kg) was administrated intraperitoneally at 10:00. Two hours later, ARCs were isolated for ChIP-qPCR analysis. To examine leptin-induced protein-protein interactions, Cas9+ mice were fasted overnight for 22 h. On the second day, leptin was administrated at 5 mg/kg intraperitoneally at 10:00, and ARCs were isolated 2 h later, followed by co-IP studies.

| Compound | apoptosis (Caspase-1) (Caspase-1) | plasma cortisol levels (Plasma corticosterone) | adverse pathology [1] | DNA 5hmC levels [2] | let-7a miRNA levels in disease tissues (let-7a) | hunger-induced appetite (Cas9+ mice; AAV control mice) | hunger-induced appetite (Cas9+ mice; TET3 knockdown (AAV-sgTet3) mice) |
| --- | --- | --- | --- | --- | --- | --- | --- |
| Nc1nc(=O)n(-c2cccc(-c3ccccc3)c2)cc1Cl [Bobcat339, 4-Amino-1-[1,1′-biphenyl]-3-yl-5-chloro-2(1H)-pyrimidinone] | increased apoptosis; also recorded: a significant increase in pyroptotic cell death | reduced plasma cortisol levels | minimal adverse pathology | decreased DNA 5hmC levels | increased | – | – |
| leptin: adipose hormone; mouse leptin L3772-1MG or human leptin L4146-1MG, Sigma Aldrich | – | – | – | – | – | suppressed hunger-induced appetite in control mice | failed to do so in TET3 knockdown animals |
